Data from PubChem BioAssay AID248 (DTP/NCI, 2004).
Inconclusive results and toxic doses are left out. Rule as the data show it: active = T/C of 150% or more; inactive = T/C below 125%.

System: L1210 leukemia ip in BDF1 mice, survival T/C
Experiment: NCI In Vivo Anticancer Drug Screen. Data for tumor model L1210 Leukemia (intraperitoneal) in B6D2F1 (BDF1) mice
Conditions: endpoint: mean survival time, higher = longer survival
Method in brief: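 Transplantable tumor model; survival measured in treated vs vehicle control mice. Value = treated/control.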

[1] = dose: 100.0 mg/kg/injection, schedule: Q01DX001 (ip), vehicle: Klucel (hydroxypropylcellulose) (HPC)
[2] = dose: 200.0 mg/kg/injection, schedule: Q01DX001 (ip), vehicle: Klucel (hydroxypropylcellulose) (HPC)
[3] = dose: 400.0 mg/kg/injection, schedule: Q01DX001 (ip), vehicle: Klucel (hydroxypropylcellulose) (HPC)
[4] = dose: 100.0 mg/kg/injection, schedule: Q01DX001 (ip), vehicle: saline
[5] = dose: 200.0 mg/kg/injection, schedule: Q01DX001 (ip), vehicle: saline
[6] = dose: 400.0 mg/kg/injection, schedule: Q01DX001 (ip), vehicle: saline
[7] = dose: 100.0 mg/kg/injection, schedule: Q04DX002 (ip), vehicle: Klucel (hydroxypropylcellulose) (HPC)
[8] = dose: 200.0 mg/kg/injection, schedule: Q04DX002 (ip), vehicle: Klucel (hydroxypropylcellulose) (HPC)
[9] = dose: 400.0 mg/kg/injection, schedule: Q04DX002 (ip), vehicle: Klucel (hydroxypropylcellulose) (HPC)
[10] = dose: 100.0 mg/kg/injection, schedule: Q04DX002 (ip), vehicle: saline with Tween-80
[11] = dose: 200.0 mg/kg/injection, schedule: Q04DX002 (ip), vehicle: saline with Tween-80
[12] = dose: 400.0 mg/kg/injection, schedule: Q04DX002 (ip), vehicle: saline with Tween-80
[13] = dose: 100.0 mg/kg/injection, schedule: Q01DX001 (ip), vehicle: carboxymethylcellulose (CMC)
[14] = dose: 200.0 mg/kg/injection, schedule: Q01DX001 (ip), vehicle: carboxymethylcellulose (CMC)
[15] = dose: 400.0 mg/kg/injection, schedule: Q01DX001 (ip), vehicle: carboxymethylcellulose (CMC)
[16] = dose: 100.0 mg/kg/injection, schedule: Q01DX009 (ip), vehicle: Klucel (hydroxypropylcellulose) (HPC)
[17] = dose: 200.0 mg/kg/injection, schedule: Q01DX009 (ip), vehicle: Klucel (hydroxypropylcellulose) (HPC)

Measured: T/C

N#CCC(C#N)C1C=CCC1 (configuration not stated)
inactive: dose: 5.0 mg/kg/injection, schedule: Q01DX001 (ip), vehicle: saline 97 % of control | dose: 10.0 mg/kg/injection, schedule: Q01DX001 (ip), vehicle: saline 97 % of control | dose: 12.5 mg/kg/injection, schedule: Q04DX003 (ip), vehicle: saline with Tween-80 98 % of control

CCOC(=O)CC(=O)c1ccc(OC)cc1
inactive: [1] 101 % of control | [2] 106 % of control | [3] 107 % of control

COc1ccc(OC)c(NC(=O)NNc2c([N+](=O)[O-])cc(C(F)(F)F)cc2[N+](=O)[O-])c1
inactive: dose: 100.0 mg/kg/injection, schedule: Q01DX009 (ip), vehicle: other 97 % of control | dose: 200.0 mg/kg/injection, schedule: Q01DX009 (ip), vehicle: other 89 % of control

COc1cc(N)c2ncccc2c1Cl
inactive: [4] 104 % of control | [5] 104 % of control | [6] 101 % of control

CCCS(=O)(=O)N1CC(C)OC(C)C1 (configuration not stated)
inactive: [7] 91 % of control | [8] 91 % of control | [9] 89 % of control

C[CH2][Sn](/[CH]=C\CO)([CH2]C)[CH2]C
inactive: dose: 0.78 mg/kg/injection, schedule: Q01DX009 (ip), vehicle: saline 86 % of control | dose: 1.56 mg/kg/injection, schedule: Q01DX009 (ip), vehicle: saline 104 % of control | dose: 3.12 mg/kg/injection, schedule: Q01DX009 (ip), vehicle: saline 90 % of control

O=[N+]([O-])c1ccc(/C=N/Nc2c3ccccc3nc3ccccc23)cc1
inactive: [6] 94 % of control

O=S(=O)(C1CC1c1ccccc1)N1CCCc2ccccc21 (configuration not stated)
inactive: [4] 103 % of control | dose: 100.0 mg/kg/injection, schedule: Q04DX003 (ip), vehicle: saline 98 % of control | [5] 103 % of control | dose: 200.0 mg/kg/injection, schedule: Q04DX003 (ip), vehicle: saline 98 % of control | [6] 95 % of control | dose: 400.0 mg/kg/injection, schedule: Q04DX003 (ip), vehicle: saline 104 % of control

CCOC1(OCC)C(Cl)=C(Cl)C(Cl)=C1Cl
inactive: dose: 25.0 mg/kg/injection, schedule: Q01DX005 (ip), vehicle: Klucel (hydroxypropylcellulose) (HPC) 108 % of control | dose: 25.0 mg/kg/injection, schedule: Q01DX009 (ip), vehicle: Klucel (hydroxypropylcellulose) (HPC) 110 % of control | dose: 25.0 mg/kg/injection, schedule: Q04DX002 (ip), vehicle: Klucel (hydroxypropylcellulose) (HPC) 104 % of control | dose: 50.0 mg/kg/injection, schedule: Q01DX005 (ip), vehicle: Klucel (hydroxypropylcellulose) (HPC) 102 % of control | dose: 50.0 mg/kg/injection, schedule: Q01DX009 (ip), vehicle: Klucel (hydroxypropylcellulose) (HPC) 96 % of control | dose: 50.0 mg/kg/injection, schedule: Q04DX002 (ip), vehicle: Klucel (hydroxypropylcellulose) (HPC) 104 % of control | dose: 100.0 mg/kg/injection, schedule: Q01DX005 (ip), vehicle: Klucel (hydroxypropylcellulose) (HPC) 97 % of control

COc1ccc(/C=N/NC(=O)c2ccc(N)cc2)c(OC)c1
inactive: dose: 100.0 mg/kg/injection, schedule: Q04DX002 (ip), vehicle: saline 101 % of control | dose: 200.0 mg/kg/injection, schedule: Q04DX002 (ip), vehicle: saline 108 % of control | dose: 400.0 mg/kg/injection, schedule: Q04DX002 (ip), vehicle: saline 97 % of control

O=C1CSC=C(c2ccccc2)O1
inactive: [10] 115 % of control | [11] 101 % of control | [12] 112 % of control

CC(C)CCCC(C)C1CCC2C3=CC=C4CC(OC(=O)c5cc([N+](=O)[O-])cc([N+](=O)[O-])c5)CCC4(C)C3CCC21C (configuration not stated)
inactive: dose: 100.0 mg/kg/injection, schedule: Q01DX001 (ip), vehicle: other 88 % of control | dose: 200.0 mg/kg/injection, schedule: Q01DX001 (ip), vehicle: other 98 % of control

Nc1nc2c(ncn2C2OC(COC(=O)c3ccc(Cl)cc3)C(OC(=O)c3ccc(Cl)cc3)C2OC(=O)c2ccc(Cl)cc2)c(=O)[nH]1 (configuration not stated)
inactive: dose: 50.0 mg/kg/injection, schedule: Q01DX001 (ip), vehicle: carboxymethylcellulose (CMC) 95 % of control | [13] 97 % of control | [14] 91 % of control | [15] 97 % of control

O=C1NC(c2cccc(Cl)c2)N2C(=O)NC(c3cccc(Cl)c3)N12 (configuration not stated)
inactive: dose: 100.0 mg/kg/injection, schedule: Q01DX009 (ip), vehicle: gum acacia 93 % of control | dose: 100.0 mg/kg/injection, schedule: Q04DX003 (ip), vehicle: gum acacia 92 % of control | dose: 200.0 mg/kg/injection, schedule: Q04DX003 (ip), vehicle: gum acacia 103 % of control | dose: 400.0 mg/kg/injection, schedule: Q01DX009 (ip), vehicle: gum acacia 90 % of control | dose: 400.0 mg/kg/injection, schedule: Q04DX003 (ip), vehicle: gum acacia 92 % of control

NC1=NCN(c2ccc(OCCOc3ccc([N+](=O)[O-])cc3)cc2)C(N)=N1
inactive: [1] 107 % of control | [2] 102 % of control | [3] 97 % of control

Cc1ccc(S(=O)(=O)OC2C(=O)C(C)(C)CCC2(C)C)cc1 (configuration not stated)
inactive: [7] 100 % of control | [8] 100 % of control | [9] 97 % of control

Cc1cc(=O)[nH]n1-c1ccc(N)cc1
inactive: dose: 100.0 mg/kg/injection, schedule: Q04DX003 (ip), vehicle: Klucel (hydroxypropylcellulose) (HPC) 105 % of control | dose: 200.0 mg/kg/injection, schedule: Q04DX003 (ip), vehicle: Klucel (hydroxypropylcellulose) (HPC) 94 % of control | dose: 400.0 mg/kg/injection, schedule: Q04DX003 (ip), vehicle: Klucel (hydroxypropylcellulose) (HPC) 103 % of control

COc1ccc(CCNC(=S)NC(=O)c2ccccc2)cc1OC
inactive: dose: 100.0 mg/kg/injection, schedule: Q01DX009 (sc), vehicle: olive oil, sesame oil, peanut oil 98 % of control | dose: 100.0 mg/kg/injection, schedule: Q04DX003 (sc), vehicle: olive oil, sesame oil, peanut oil 100 % of control | dose: 200.0 mg/kg/injection, schedule: Q01DX009 (sc), vehicle: olive oil, sesame oil, peanut oil 104 % of control | dose: 200.0 mg/kg/injection, schedule: Q04DX003 (sc), vehicle: olive oil, sesame oil, peanut oil 98 % of control | dose: 400.0 mg/kg/injection, schedule: Q01DX009 (sc), vehicle: olive oil, sesame oil, peanut oil 98 % of control | dose: 400.0 mg/kg/injection, schedule: Q04DX003 (sc), vehicle: olive oil, sesame oil, peanut oil 103 % of control

NC(=O)Nc1ncn[nH]1
inactive: [10] 95 % of control | [11] 95 % of control | [12] 95 % of control

CCC1(CC)c2ccccc2C(CC)(CC)[N+]1(C)C
inactive: [13] 102 % of control | [14] 98 % of control

Cc1cccn(C(=O)c2ccccc2)c1=N
inactive: [13] 100 % of control | [14] 96 % of control | [15] 102 % of control

Cn1cnc2c1c(=O)[nH]c(=O)n2C
inactive: [16] 93 % of control | dose: 100.0 mg/kg/injection, schedule: Q01DX009 (ip), vehicle: saline 95 % of control | [17] 86 % of control | dose: 200.0 mg/kg/injection, schedule: Q01DX009 (ip), vehicle: saline 92 % of control | dose: 400.0 mg/kg/injection, schedule: Q01DX009 (ip), vehicle: Klucel (hydroxypropylcellulose) (HPC) 89 % of control

Cc1ccc(S(=O)(=O)OC2C(O)C(CO)OC2n2c(Br)c(C(N)=O)c3c(N)ncnc32)cc1 (configuration not stated)
inactive: dose: 25.0 mg/kg/injection, schedule: Q01DX009 (ip), vehicle: water 100 % of control | dose: 50.0 mg/kg/injection, schedule: Q01DX009 (ip), vehicle: water 97 % of control | dose: 100.0 mg/kg/injection, schedule: Q01DX009 (ip), vehicle: water 95 % of control | dose: 200.0 mg/kg/injection, schedule: Q01DX009 (ip), vehicle: water 93 % of control

COc1ccc(NC(=O)c2c(Br)c(Br)c(Br)c(Br)c2C(=O)O)c(Cl)c1
inactive: [16] 96 % of control | [17] 93 % of control
